The subject of one test is 22Rv1 cells. Kind of test: Cell-based assay, anti-proliferative activity (Cell Counting Kit-8, 72 hours). Also on record: species or system human. The following applies: read-out: IC50 (μM) (22Rvl). The method, boiled down:
(§1)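 Cells seeded at 2,000–3,000 cells/well and exposed to candidate MELK inhibitors for 72 hours; growth measured with Cell Counting Kit-8. IC50 values calculated from the growth read-out.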
In general terms: Tetrazolium dyes change colour on reduction, which living cells bring about.

The subject of another test is T47D cells. The test is described as above. The following applies: read-out: IC50 (μM) (T47D). Also on record: species or system human. Put shortly:
as §1

For a further test, the system named is A549 cells. The test is described as above. Also on record: species or system human. As to conditions: read-out: IC50 (μM) (A549). The method, boiled down: as §1
Another test deals with DU4475 cells. The description is as above. Also on record: species or system human. As to conditions: read-out: IC50 (μM) (DU4475). The method, boiled down: as §1
Another test has as its target MELK (Homo sapiens, UniProt Q14680). Briefly: Kinase assay (IMAP fluorescence polarization, FITC-labeled histone H3 peptide). Type of test: biochemical. The following applies: 50 micro-M ATP. The method, boiled down: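 Kinase (0.8 ng/μL) reacted with 100 nM FITC-histone H3 peptide and 50 μM ATP in 20 mM HEPES, 0.3 mM MgCl2, 2 mM DTT, 0.01% Tween-20, pH 7.4, for 1 hour at room temperature. Phosphorylation read by IMAP fluorescence polarization after adding binding solution; IC50 from four-parameter fit.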
On the technique in general: In fluorescence polarisation assays a small probe gives low polarisation when free and higher when bound to something large.

In another test the test system is HT1197 cells. Briefly: Cell-based assay, anti-proliferative activity, MELK-negative control (Cell Counting Kit-8, 72 hours). Also on record: species or system human. As to conditions: read-out: IC50 (μM) (HTll97). How it is done: 100 micro-L of cell suspension was seeded onto 96-well microtiter plate (ViewPlate-96FTC, PerkinElmer). The initial cell concentration of 22Rv1, T47D, A549, DU4475, and HT1197 were 3,000 cells/well, 2,000 cells/well and 2,500 cells/well, respectively. Cellular growth was determined using Cell Counting Kit-8 (DOJINDO) at 72 hours after the exposure of the candidate inhibitors. […] Accurate IC50 values were calculated as described previously.

Where a name gives a salt, the structure may show the parent alone. Read-outs that look alike come from different tables or passages of the source.

Chain of MELK (Q14680 whole entry, looked up): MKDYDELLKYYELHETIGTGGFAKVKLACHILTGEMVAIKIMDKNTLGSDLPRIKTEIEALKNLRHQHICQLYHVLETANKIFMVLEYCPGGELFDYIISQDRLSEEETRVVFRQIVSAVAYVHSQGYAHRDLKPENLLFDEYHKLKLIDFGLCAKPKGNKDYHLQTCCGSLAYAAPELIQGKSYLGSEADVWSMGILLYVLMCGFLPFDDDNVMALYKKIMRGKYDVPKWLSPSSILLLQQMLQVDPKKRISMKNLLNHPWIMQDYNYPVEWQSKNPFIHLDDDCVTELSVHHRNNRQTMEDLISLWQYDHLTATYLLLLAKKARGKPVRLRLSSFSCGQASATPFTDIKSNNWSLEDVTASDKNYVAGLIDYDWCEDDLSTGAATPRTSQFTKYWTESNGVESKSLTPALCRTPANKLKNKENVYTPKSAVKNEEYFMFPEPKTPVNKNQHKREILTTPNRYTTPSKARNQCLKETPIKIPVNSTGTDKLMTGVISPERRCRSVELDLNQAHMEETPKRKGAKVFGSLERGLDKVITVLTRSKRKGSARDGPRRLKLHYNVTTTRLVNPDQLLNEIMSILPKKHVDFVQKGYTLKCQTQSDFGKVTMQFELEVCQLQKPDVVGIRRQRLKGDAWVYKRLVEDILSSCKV

`CC(=O)c1cnc2ccc(-c3cc(C)c(O)c(C)c3)nc2c1N[C@H]1CC[C@H](CN(C)C)CC1` [Example 59, 1-(4-{trans-4-[(Dimethylamino)methyl]-cyclohexylamino}-6-(4-hydroxy-3,5-dimethylphenyl)-1,5-naphthyridin-3-yl) ethanone dihydrochloride]: the IC50 was determined as 2.5 µM with 22Rv1 cells (Homo sapiens, 22Rv1, 72 h); 0.39 µM in the test on T47D cells (Homo sapiens, T47D, 72 h); 0.23 µM in the test on A549 cells (Homo sapiens, A549, 72 h); 0.21 µM in the test with DU4475 cells (Homo sapiens, DU-4475, 72 h); 0.0047 µM against MELK; 7.5 µM in the test on HT1197 cells (Homo sapiens, HT1197, 72 h).
Take `CN(C)CCOc1ccc(Nc2c(S(C)(=O)=O)cnc3ccc(-c4cc(Cl)c(O)c(Cl)c4)nc23)cn1` [Example 24, 2,6-Dichloro-4-(8-{6-[2-(dimethylamino)ethoxy]pyridin-3-ylamino}-7-(methylsulfonyl)-1,5-naphthyridin-2-yl)phenol hydrochloride]: the IC50 in the test with 22Rv1 cells (Homo sapiens, 22Rv1, 72 h) was 1.8 µM; with T47D cells (Homo sapiens, T47D, 72 h) it was 0.58 µM; with A549 cells (Homo sapiens, A549, 72 h) it was 5.1 µM; in the test on DU4475 cells (Homo sapiens, DU-4475, 72 h), 0.38 µM; at MELK it was 0.0053 µM; in the test on HT1197 cells (Homo sapiens, HT1197, 72 h) it was 15 µM.
`CC(=O)c1cnc2ccc(-c3c(C)n[nH]c3C)nc2c1N[C@H]1CC[C@H](CN(C)C)CC1` [Example 58, 1-(6-(3,5-Dimethyl-1H-pyrazol-4-yl)-4-{trans-4-[(dimethylamino)methyl]cyclohexylamino}-1,5-naphthyridin-3-yl)ethanone trihydrochloride]: the IC50 with 22Rv1 cells (Homo sapiens, 22Rv1, 72 h) is 6.1 µM; in the test on T47D cells (Homo sapiens, T47D, 72 h), 1.6 µM; in the test on A549 cells (Homo sapiens, A549, 72 h) it was 3 µM; in the test with DU4475 cells (Homo sapiens, DU-4475, 72 h), 5.9 µM; against MELK, 1 µM; with HT1197 cells (Homo sapiens, HT1197, 72 h) it was 10 µM.
For `CC(=O)c1cnc2ccc(-c3cnc4[nH]ccc4c3)nc2c1N[C@H]1CC[C@H](CN(C)C)CC1` [Example 82, 1-(4-{trans-4-[(Dimethylamino)methyl]cyclohexylamino}-6-(1H-pyrrolo[2,3-b]pyridin-5-yl)-1,5-naphthyridin-3-yl)ethanone trihydrochloride], the IC50 in the test on 22Rv1 cells (Homo sapiens, 22Rv1, 72 h) was determined as 0.37 µM; with T47D cells (Homo sapiens, T47D, 72 h), 0.32 µM; in the test on A549 cells (Homo sapiens, A549, 72 h), 0.33 µM; in the test on DU4475 cells (Homo sapiens, DU-4475, 72 h), 0.65 µM; against MELK it was 0.013 µM; with HT1197 cells (Homo sapiens, HT1197, 72 h) it was 2.3 µM.
As to `CN(C)[C@H]1CC[C@H](Nc2c(C(=O)C3CC3)cnc3ccc(-c4cc(Cl)c(O)c(Cl)c4)nc23)CC1` [Example 80, Cyclopropyl {6-(3,5-dichloro-4-hydroxyphenyl)-4-[trans-4-(dimethylamino)-cyclohexylamino]-1,5-naphthyridin-3-yl}methanone dihydrochloride], the IC50 with 22Rv1 cells (Homo sapiens, 22Rv1, 72 h) worked out at 0.0052 µM; in the test with T47D cells (Homo sapiens, T47D, 72 h), 0.0041 µM; in the test on A549 cells (Homo sapiens, A549, 72 h), 0.0076 µM; in the test with DU4475 cells (Homo sapiens, DU-4475, 72 h), 0.002 µM; against MELK, 0.0006 µM; with HT1197 cells (Homo sapiens, HT1197, 72 h), 0.084 µM.
For `CC(=O)c1cnc2ccc(-c3cc(F)c(O)c(Cl)c3)nc2c1N[C@H]1CC[C@H](N(C)C)CC1` [Example 3, 1-{6-(3-Chloro-5-fluoro-4-hydroxyphenyl)-4-[trans-4-(dimethylamino)cyclohexylamino]-1,5-naphthyridin-3-yl}ethanone dihydrochloride], the IC50 amounted to 0.006 µM with 22Rv1 cells (Homo sapiens, 22Rv1, 72 h); 0.0026 µM with T47D cells (Homo sapiens, T47D, 72 h); 0.0091 µM in the test on A549 cells (Homo sapiens, A549, 72 h); 0.0033 µM in the test with DU4475 cells (Homo sapiens, DU-4475, 72 h); 0.0012 µM against MELK; 0.39 µM in the test with HT1197 cells (Homo sapiens, HT1197, 72 h).
Take `CC(=O)c1cnc2ccc(-c3ccncc3)nc2c1N[C@H]1CC[C@H](CN(C)C)CC1` [Example 56, 1-{4-[4-(trans-4-Dimethylamino)methylcyclohexylamino]-6-(pyridin-4-yl)-1,5-naphthyridin-3-yl}ethanone trihydrochloride]: the half-maximal inhibitory concentration (IC50) with 22Rv1 cells (Homo sapiens, 22Rv1, 72 h) was determined as 0.86 µM; in the test on T47D cells (Homo sapiens, T47D, 72 h) it was 0.38 µM; in the test on A549 cells (Homo sapiens, A549, 72 h), 0.52 µM; with DU4475 cells (Homo sapiens, DU-4475, 72 h), 0.46 µM; against MELK, 0.016 µM; in the test with HT1197 cells (Homo sapiens, HT1197, 72 h), 1.7 µM.
In the case of `CCC(=O)c1cnc2ccc(-c3cc(F)c(O)c(Cl)c3)nc2c1N[C@H]1CC[C@H](CN(C)C)CC1` [Example 205, 1-[6-(3-chloro-5-fluoro-4-hydroxyphenyl)-4-({trans-4-[(dimethylamino)methyl]cyclohexyl}amino)-1,5-naphthyridin-3-yl)]propan-1-one dihydrochloride], the IC50 worked out at 0.022 µM with 22Rv1 cells (Homo sapiens, 22Rv1, 72 h); 0.0083 µM with T47D cells (Homo sapiens, T47D, 72 h); 0.032 µM in the test on A549 cells (Homo sapiens, A549, 72 h); 0.033 µM with DU4475 cells (Homo sapiens, DU-4475, 72 h); 0.0028 µM against MELK; 0.69 µM with HT1197 cells (Homo sapiens, HT1197, 72 h).
As to `COc1cc(-c2ccc3ncc(S(C)(=O)=O)c(N[C@H]4CC[C@H](CN(C)C)CC4)c3n2)cc(Cl)c1O` [Example 14, 6-(3-Chloro-4-hydroxy-5-methoxyphenyl)-4-{trans-4-[(dimethylamino)methyl]-cyclohexylamino}-3-methylsulfonyl-1,5-naphthyridine-dihydrochloride], the IC50 is 0.05 µM with 22Rv1 cells (Homo sapiens, 22Rv1, 72 h); 0.027 µM in the test on T47D cells (Homo sapiens, T47D, 72 h); 0.033 µM in the test on A549 cells (Homo sapiens, A549, 72 h); 0.0096 µM in the test on DU4475 cells (Homo sapiens, DU-4475, 72 h); 0.0009 µM against MELK; 0.14 µM in the test with HT1197 cells (Homo sapiens, HT1197, 72 h).
Turning to `CC(=O)c1cnc2ccc(-c3cc(Cl)c(O)c(Cl)c3)nc2c1N[C@H]1CC[C@H](CN2CCN(C)CC2)CC1` [Example 63, 1-(6-(3,5-Dichloro-4-hydroxyphenyl)-4-{trans-4-[(4-methylpiperazin-1-yl)methyl]cyclohexyl-amino}-1,5-naphthyridin-3-yl)ethanone trihydrochloride], the IC50 in the test on 22Rv1 cells (Homo sapiens, 22Rv1, 72 h) is 0.025 µM; in the test with T47D cells (Homo sapiens, T47D, 72 h) it was 0.016 µM; in the test with A549 cells (Homo sapiens, A549, 72 h), 0.02 µM; with DU4475 cells (Homo sapiens, DU-4475, 72 h), 0.0092 µM; on MELK, 0.0008 µM; with HT1197 cells (Homo sapiens, HT1197, 72 h) it was 0.13 µM.
As for `CC(=O)c1cnc2ccc(-c3cc(F)c(O)c(Cl)c3)nc2c1N[C@H]1CC[C@H](CCN(C)C)CC1` [Example 10, 1-(6-(3-Chloro-5-fluoro-4-hydroxyphenyl)-4-{trans-4-[2-(dimethylamino)ethyl]-cyclohexylamino}-1,5-naphthyridin-3-yl)ethanone dihydrochloride], the IC50 with 22Rv1 cells (Homo sapiens, 22Rv1, 72 h) was 0.01 µM; in the test with T47D cells (Homo sapiens, T47D, 72 h) it was 0.0039 µM; in the test with A549 cells (Homo sapiens, A549, 72 h), 0.012 µM; in the test on DU4475 cells (Homo sapiens, DU-4475, 72 h), 0.0049 µM; at MELK, 0.0014 µM; in the test with HT1197 cells (Homo sapiens, HT1197, 72 h), 0.2 µM.
Turning to `CC(=O)c1cnc2ccc(-c3cc(Cl)c(O)c(Cl)c3)nc2c1Nc1cccc(CCN2CCCC2)c1` [Example 19, 1-[6-(3,5-Dichloro-4-hydroxyphenyl)-4-{3-[2-(pyrrolidin-1-yl)ethyl]phenylamino}-1,5-naphthyridin-3-yl]ethanone dihydrochloride], the IC50 in the test on 22Rv1 cells (Homo sapiens, 22Rv1, 72 h) came out at 0.63 µM; with T47D cells (Homo sapiens, T47D, 72 h) it was 0.59 µM; in the test with A549 cells (Homo sapiens, A549, 72 h), 0.14 µM; in the test on DU4475 cells (Homo sapiens, DU-4475, 72 h), 0.11 µM; on MELK, 0.032 µM; in the test with HT1197 cells (Homo sapiens, HT1197, 72 h), 7 µM.
In the case of “1-[6-(3-Chloro-5-fluoro-4-hydroxyphenyl)-4-(trans-4-hydroxycyclohexylamino)-1,5-naphthyridin-3-yl]ethanone hydrochloride [Example 92]”, the IC50 in the test with 22Rv1 cells (22Rv1 cells, 72 hours) came to 0.061 µM; in the test with T47D cells (T47D cells, 72 hours), 0.036 µM; with A549 cells (A549 cells, 72 hours) it was 0.053 µM; in the test with DU4475 cells (DU4475 cells, 72 hours), 0.018 µM; at MELK, 0.012 µM; with HT1197 cells (HT1197 cells (MELK-negative control), 72 hours) it was 0.53 µM.
Turning to `CN(C)[C@H]1CC[C@H](Nc2c(S(C)(=O)=O)cnc3ccc(-c4cc(F)c(O)c(Cl)c4)nc23)CC1` [Example 32, 2-Chloro-4-(8-(trans-4-(dimethylamino)-cyclohexylamino)-7-(methylsulfonyl)-1,5-naphthyridin-2-yl)-6-fluorophenol dihydrochloride], the IC50 in the test on 22Rv1 cells (Homo sapiens, 22Rv1, 72 h) amounted to 0.046 µM; with T47D cells (Homo sapiens, T47D, 72 h), 0.024 µM; with A549 cells (Homo sapiens, A549, 72 h), 0.2 µM; in the test on DU4475 cells (Homo sapiens, DU-4475, 72 h) it was 0.0063 µM; at MELK it was 0.0016 µM; in the test with HT1197 cells (Homo sapiens, HT1197, 72 h), 3.1 µM.
As to `CC(=O)c1cnc2ccc(-c3cc(Cl)c(O)c(Cl)c3)nc2c1N1CCC(CCN2CCCC2)CC1` [Example 36, 1-[6-(3,5-Dichloro-4-hydroxyphenyl)-4-{4-[2-(pyrrolidin-1-yl)ethyl]piperidin-1-yl}-1,5-naphthyridin-3-yl]ethanone dihydrochloride], the IC50 was 0.36 µM in the test with 22Rv1 cells (Homo sapiens, 22Rv1, 72 h); 0.21 µM in the test on T47D cells (Homo sapiens, T47D, 72 h); 0.63 µM in the test with A549 cells (Homo sapiens, A549, 72 h); 0.22 µM in the test on DU4475 cells (Homo sapiens, DU-4475, 72 h); 0.0021 µM against MELK; 4.7 µM with HT1197 cells (Homo sapiens, HT1197, 72 h).
As to `CNC1CCN(c2ccc(Nc3c(C(C)=O)cnc4ccc(-c5cc(Cl)c(O)c(Cl)c5)nc34)cn2)C1` (stereo not drawn) [Example 53, 1-(6-(3,5-Dichloro-4-hydroxyphenyl)-4-{6-[3-(methylamino)pyrrolidin-1-y]pyridin-3-ylamino}-1,5-naphthyridin-3-yl)ethanone trihydrochloride], the IC50 with 22Rv1 cells (Homo sapiens, 22Rv1, 72 h) is 0.078 µM; with T47D cells (Homo sapiens, T47D, 72 h), 0.042 µM; in the test on A549 cells (Homo sapiens, A549, 72 h), 0.2 µM; in the test with DU4475 cells (Homo sapiens, DU-4475, 72 h), 0.071 µM; at MELK, 0.0015 µM; with HT1197 cells (Homo sapiens, HT1197, 72 h) it was 100 µM.

One may read the IC50 as the midpoint of a concentration-inhibition curve.

For the origin of these results see patent US9067937B2 (priority 2012, dated 2015).
